According to PubChem BioAssay (NCI):
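Following 48 hours of exposure in 96-well plates, responses at five concentrations were used to interpolate endpoints linearly. GI50 marks 50% less growth. Definition used: TGI = concentration required for complete inhibition of growth.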

Legend:
Assay in all cases: growth of human tumour cells (NCI), 48 h
HCT-15 colon = tested on: HCT-15 colon
SR leukemia = tested on: SR leukemia
SK-OV-3 ovarian = tested on: SK-OV-3 ovarian
SNB-75 CNS = tested on: SNB-75 CNS
SF-295 CNS = tested on: SF-295 CNS
K-562 leukemia = tested on: K-562 leukemia
UACC-257 melanoma = tested on: UACC-257 melanoma
MDA-MB-468 breast = tested on: MDA-MB-468 breast
TK-10 renal = tested on: TK-10 renal
COLO 205 colon = tested on: COLO 205 colon
SW-620 colon = tested on: SW-620 colon
T-47D breast = tested on: T-47D breast
SNB-19 CNS = tested on: SNB-19 CNS
OVCAR-4 ovarian = tested on: OVCAR-4 ovarian
UACC-62 melanoma = tested on: UACC-62 melanoma
KM12 colon = tested on: KM12 colon
786-0 renal = tested on: 786-0 renal
MDA-MB-231 breast = tested on: MDA-MB-231 breast
HCC-2998 colon = tested on: HCC-2998 colon
NCI-H226 lung = tested on: NCI-H226 lung
ACHN renal = tested on: ACHN renal
DU-145 prostate = tested on: DU-145 prostate
MOLT-4 leukemia = tested on: MOLT-4 leukemia
SF-268 CNS = tested on: SF-268 CNS
LOX IMVI melanoma = tested on: LOX IMVI melanoma
HOP-92 NSCLC = tested on: HOP-92 NSCLC
SN12C renal = tested on: SN12C renal
BT-549 breast = tested on: BT-549 breast
HOP-62 NSCLC = tested on: HOP-62 NSCLC
OVCAR-3 ovarian = tested on: OVCAR-3 ovarian
SK-MEL-2 melanoma = tested on: SK-MEL-2 melanoma
NCI/ADR-RES ovarian = tested on: NCI/ADR-RES ovarian
A498 renal = tested on: A498 renal
A549 NSCLC = tested on: A549 NSCLC
MCF7 breast = tested on: MCF7 breast
PC-3 prostate = tested on: PC-3 prostate
OVCAR-8 ovarian = tested on: OVCAR-8 ovarian
EKVX NSCLC = tested on: EKVX NSCLC
SF-539 CNS = tested on: SF-539 CNS
HCT-116 colon = tested on: HCT-116 colon
CCRF-CEM leukemia = tested on: CCRF-CEM leukemia
SK-MEL-5 melanoma = tested on: SK-MEL-5 melanoma
NCI-H460 lung = tested on: NCI-H460 lung
UO-31 renal = tested on: UO-31 renal
HT29 colon = tested on: HT29 colon
SK-MEL-28 melanoma = tested on: SK-MEL-28 melanoma
CAKI-1 renal = tested on: CAKI-1 renal
HS 578T breast = tested on: HS 578T breast
HL-60(TB) leukemia = tested on: HL-60(TB) leukemia
IGROV1 ovarian = tested on: IGROV1 ovarian
MALME-3M melanoma = tested on: MALME-3M melanoma
RPMI-8226 leukemia = tested on: RPMI-8226 leukemia
OVCAR-5 ovarian = tested on: OVCAR-5 ovarian
NCI-H522 lung = tested on: NCI-H522 lung
M14 melanoma = tested on: M14 melanoma
U251 CNS = tested on: U251 CNS
NCI-H23 lung = tested on: NCI-H23 lung

Structure (SMILES): COc1ccsc1/C=N/NC(=O)c1[nH]c2ccc(Br)cc2c1-c1ccccc1
- GI50 (HCT-15 colon): 372 nM
- TGI (HCT-15 colon): 16400 nM
- GI50 (SR leukemia): 369 nM
- TGI (SR leukemia): > 100000 nM
- GI50 (SK-OV-3 ovarian): 500 nM
- TGI (SK-OV-3 ovarian): 34700 nM
- GI50 (SNB-75 CNS): 311 nM
- TGI (SNB-75 CNS): 2260 nM
- GI50 (SF-295 CNS): 317 nM
- TGI (SF-295 CNS): 13400 nM
- GI50 (K-562 leukemia): 282 nM
- TGI (K-562 leukemia): > 55700 nM
- GI50 (UACC-257 melanoma): 2910 nM
- TGI (UACC-257 melanoma): > 56900 nM
- GI50 (MDA-MB-468 breast): 273 nM
- TGI (MDA-MB-468 breast): 870 nM
- GI50 (TK-10 renal): 7010 nM
- TGI (TK-10 renal): 63900 nM
- GI50 (COLO 205 colon): 373 nM
- TGI (COLO 205 colon): 1320 nM
- GI50 (SW-620 colon): 413 nM
- TGI (SW-620 colon): > 100000 nM
- GI50 (T-47D breast): 449 nM
- TGI (T-47D breast): 25700 nM
- GI50 (SNB-19 CNS): 511 nM
- TGI (SNB-19 CNS): > 100000 nM
- GI50 (OVCAR-4 ovarian): 6340 nM
- TGI (OVCAR-4 ovarian): > 100000 nM
- GI50 (UACC-62 melanoma): 306 nM
- TGI (UACC-62 melanoma): 17500 nM
- GI50 (KM12 colon): 428 nM
- TGI (KM12 colon): 13800 nM
- GI50 (786-0 renal): 563 nM
- TGI (786-0 renal): 12600 nM
- GI50 (MDA-MB-231 breast): 437 nM
- TGI (MDA-MB-231 breast): 13000 nM
- GI50 (HCC-2998 colon): 622 nM
- TGI (HCC-2998 colon): 14500 nM
- GI50 (NCI-H226 lung): 934 nM
- TGI (NCI-H226 lung): 9950 nM
- GI50 (ACHN renal): 710 nM
- TGI (ACHN renal): 20700 nM
- GI50 (DU-145 prostate): 454 nM
- TGI (DU-145 prostate): > 100000 nM
- GI50 (MOLT-4 leukemia): 403 nM
- TGI (MOLT-4 leukemia): 11500 nM
- GI50 (SF-268 CNS): 997 nM
- TGI (SF-268 CNS): 39600 nM
- GI50 (LOX IMVI melanoma): 519 nM
- TGI (LOX IMVI melanoma): 13700 nM
- GI50 (HOP-92 NSCLC): 4060 nM
- TGI (HOP-92 NSCLC): 29300 nM
- GI50 (SN12C renal): 517 nM
- TGI (SN12C renal): 8110 nM
- GI50 (BT-549 breast): 739 nM
- TGI (BT-549 breast): 5260 nM
- GI50 (HOP-62 NSCLC): 468 nM
- TGI (HOP-62 NSCLC): > 45100 nM
- GI50 (OVCAR-3 ovarian): 407 nM
- TGI (OVCAR-3 ovarian): 15300 nM
- GI50 (SK-MEL-2 melanoma): 308 nM
- TGI (SK-MEL-2 melanoma): 10700 nM
- GI50 (NCI/ADR-RES ovarian): 268 nM
- TGI (NCI/ADR-RES ovarian): 739 nM
- GI50 (A498 renal): 15300 nM
- TGI (A498 renal): 53300 nM
- GI50 (A549 NSCLC): 634 nM
- TGI (A549 NSCLC): > 54200 nM
- GI50 (MCF7 breast): 332 nM
- TGI (MCF7 breast): 16500 nM
- GI50 (PC-3 prostate): 410 nM
- TGI (PC-3 prostate): 39700 nM
- GI50 (OVCAR-8 ovarian): 395 nM
- GI50 (EKVX NSCLC): 502 nM
- TGI (EKVX NSCLC): > 100000 nM
- GI50 (SF-539 CNS): 233 nM
- TGI (SF-539 CNS): 584 nM
- GI50 (HCT-116 colon): 369 nM
- TGI (HCT-116 colon): 5510 nM
- GI50 (CCRF-CEM leukemia): 311 nM
- TGI (CCRF-CEM leukemia): 5010 nM
- GI50 (SK-MEL-5 melanoma): 315 nM
- TGI (SK-MEL-5 melanoma): 1150 nM
- GI50 (NCI-H460 lung): 362 nM
- TGI (NCI-H460 lung): 11000 nM
- GI50 (UO-31 renal): 579 nM
- TGI (UO-31 renal): 34800 nM
- GI50 (HT29 colon): 271 nM
- TGI (HT29 colon): 698 nM
- GI50 (SK-MEL-28 melanoma): 925 nM
- TGI (SK-MEL-28 melanoma): 40800 nM
- GI50 (CAKI-1 renal): 464 nM
- TGI (CAKI-1 renal): > 56600 nM
- GI50 (HS 578T breast): 338 nM
- TGI (HS 578T breast): 65200 nM
- GI50 (HL-60(TB) leukemia): 223 nM
- TGI (HL-60(TB) leukemia): 605 nM
- GI50 (IGROV1 ovarian): 582 nM
- TGI (IGROV1 ovarian): 20500 nM
- GI50 (MALME-3M melanoma): 538 nM
- TGI (MALME-3M melanoma): 25700 nM
- GI50 (RPMI-8226 leukemia): 388 nM
- TGI (RPMI-8226 leukemia): 3870 nM
- GI50 (OVCAR-5 ovarian): 513 nM
- TGI (OVCAR-5 ovarian): 68200 nM
- GI50 (NCI-H522 lung): 187 nM
- TGI (NCI-H522 lung): 781 nM
- GI50 (M14 melanoma): 316 nM
- TGI (M14 melanoma): 13700 nM
- GI50 (U251 CNS): 410 nM
- TGI (U251 CNS): 20500 nM
- GI50 (NCI-H23 lung): 568 nM
- TGI (NCI-H23 lung): 25200 nM
